The values that follow come from patent publication US11220482B2, “Aminopyridinemethanol compounds and their use” (UNIVERSITE AMIENS PICARDIE JULES VERNE, priority 2017, dated 2022).

For one test, the system named is Plasmodium falciparum W2. The test can be described thus: Plasmodium falciparum susceptibility assay, first round (SYBR Green I). The class given is cell-based.
The subject of test [1] is Plasmodium falciparum 3D7. The test is described as above. The class given is cell-based.
A further test has as its system P. falciparum 3D7. Description: P. falciparum growth inhibition assay, second round (SYBR Green I, ICEstimator). Type of test: cell-based, Plasmodium falciparum.
[2] abbreviates: W2, first round, 48-h incubation, strain resistant to CQ, sensitive to MQ, read-out: IC50 (nM) Plasmodium falciparum W2 (converted).
Where [3] appears, read: 3D7, first round, 48-h incubation, strain susceptible to CQ, decreased susceptibility to MQ, read-out: IC50 (nM) Plasmodium falciparum 3D7 (converted).
Setting [4] is: 48 h, read-out: IC50 (nM) Plasmodium falciparum 3D7 (converted).
Setting [5] is: Plasmodium falciparum, 3D7, 48 h.

Counter-ions that a name gives are not always drawn. Like-named read-outs stand apart in the source and are kept apart here.

For the molecule `O[C@H](CNCCCN1CCN(C(c2ccccc2)c2ccccc2)CC1)c1cc(-c2ccc(C(F)(F)F)cc2)nc(C(F)(F)F)c1` [1m•HCl, (S)-2-((3-(4-benzhydrylpiperazin-1-yl)propyl)amino)-1-(2-(trifluoromethyl)-6-(4-(trifluoromethyl)phenyl)pyridin-4-yl)ethanol hydrochloride], the IC50 (in general, the concentration that gives 50% inhibition) in the test with Plasmodium falciparum W2 (setting [2]) was 67 ± 9.3 nM. For `O[C@@H](CNCCCN1CCN(C(c2ccccc2)c2ccccc2)CC1)c1cc(-c2ccc(C(F)(F)F)cc2)nc(C(F)(F)F)c1` [1n•HCl, (R)-2-((3-(4-benzhydrylpiperazin-1-yl)propyl)amino)-1-(2-(trifluoromethyl)-6-(4-(trifluoromethyl)phenyl)pyridin-4-yl)ethanol hydrochloride], in test [1] (setting [3]), the IC50 was 125 nM. As to `CCN(CC)CCCC(C)Nc1ccnc2cc(Cl)ccc12` (centres unmarked) [CQ, Chloroquine, reference compound], the IC50 was determined as 199 ± 27 nM with Plasmodium falciparum W2 (W2, 48 h, read-out: IC50 (nM) Plasmodium falciparum W2) and 75.9 ± 3 nM in test [1] (3D7, 48 h, read-out: IC50 (nM) Plasmodium falciparum 3D7). In the case of `CCCCCNC[C@H](O)c1cc(-c2ccc(C(F)(F)F)cc2)nc(C(F)(F)F)c1` [Compound 1b, (R)-2-(Pentylamino)-1-(2-(trifluoromethyl)-6-(4-(trifluoromethyl)phenyl)pyridin-4-yl)ethanol], the IC50 was 7.2 nM in the test on Plasmodium falciparum W2 (setting [2]) and 41.8 nM in test [1] (setting [3]).

As to `CCCCCCNC[C@@H](O)c1cc(-c2ccc(C(F)(F)F)cc2)nc(C(F)(F)F)c1` [Compound 1c, (S)-2-(Hexylamino)-1-(2-(trifluoromethyl)-6-(4-(trifluoromethyl)phenyl)pyridin-4-yl)ethanol], in test [1] (setting [3]), the IC50 is 47.1 ± 13.2 nM. For the molecule `CCCCCCNC[C@H](O)c1cc(-c2ccc(C(F)(F)F)cc2)nc(C(F)(F)F)c1` [Compound 1d, (R)-2-(Hexylamino)-1-(2-(trifluoromethyl)-6-(4-(trifluoromethyl)phenyl)pyridin-4-yl)ethanol], the 50% inhibitory concentration (IC50) is 8.3 nM in the test on Plasmodium falciparum W2 (setting [2]) and 32.3 nM in test [1] (setting [3]). For the molecule `CCCCCCCNC[C@@H](O)c1cc(-c2ccc(C(F)(F)F)cc2)nc(C(F)(F)F)c1` [Compound 1e, (S)-2-(Heptylamino)-1-(2-(trifluoromethyl)-6-(4-(trifluoromethyl)phenyl)pyridin-4-yl)ethanol], the values for the IC50 (in the test on Plasmodium falciparum W2 (setting [2]); in test [1] (setting [3])) were 5.6 nM and 17.7 nM, respectively.

In the case of `CCCCCCCNC[C@H](O)c1cc(-c2ccc(C(F)(F)F)cc2)nc(C(F)(F)F)c1` [Compound 1f, (R)-2-(Heptylamino)-1-(2-(trifluoromethyl)-6-(4-(trifluoromethyl)phenyl)pyridin-4-yl)ethanol], the IC50 in the test with Plasmodium falciparum W2 (setting [2]) was 3.5 nM; in test [1] (setting [3]), 54.4 nM.

Turning to `O[C@H](CNCCNC(c1ccccc1)c1ccccc1)c1cc(-c2ccc(C(F)(F)F)cc2)nc(C(F)(F)F)c1` [Compound 1g, (S)-2-((2-(Benzhydrylamino)ethyl)amino)-1-(2-(trifluoromethyl)-6-(4-(trifluoromethyl)phenyl)pyridin-4-yl)ethanol], the IC50 was 13.1 ± 1 nM in the test on Plasmodium falciparum W2 (setting [2]) and 22.4 ± 2.5 nM in test [1] (setting [3]). Taken in the same sequence, the figures for `O[C@@H](CNCCNC(c1ccccc1)c1ccccc1)c1cc(-c2ccc(C(F)(F)F)cc2)nc(C(F)(F)F)c1` [Compound 1h, (R)-2-((2-Benzhydrylamino)ethylamino)-1-(2-(trifluoromethyl)-6-(4-(trifluoromethyl)phenyl)pyridin-4-yl)ethanol] were 5.9 nM and 25 nM. Taken in the same sequence, the figures for `COC[C@H](Cc1ccccc1)NC[C@H](O)c1cc(-c2ccc(C(F)(F)F)cc2)nc(C(F)(F)F)c1` [Compound 1j, (R)-2-(((S)-1-Methoxy-3-phenylpropan-2-yl)amino)-1-(2-(trifluoromethyl)-6-(4-(trifluoromethyl)phenyl)pyridin-4-yl)ethanol] were 14.4 nM and 32.8 nM. Take `O[C@H](CNCCCN1CCN(C(c2ccccc2)c2ccccc2)CC1)c1cc(-c2ccc(C(F)(F)F)cc2)nc(C(F)(F)F)c1` [Compound 1m, (S)-2-((3-(4-benzhydrylpiperazin-1-yl)propyl)amino)-1-(2-(trifluoromethyl)-6-(4-(trifluoromethyl)phenyl)pyridin-4-yl)ethanol]: the IC50 in test [1] (setting [3]) is 126 nM. Take `O[C@H](CNCCCC(F)(F)F)c1cc(-c2ccc(C(F)(F)F)cc2)nc(C(F)(F)F)c1` [Compound 1o, (S)-2-((4,4,4-trifluorobutyl)amino)-1-(2-(trifluoromethyl)-6-(4-(trifluoromethyl)phenyl)pyridin-4-yl)ethan-1-ol]: the IC50 is 39.3 ± 5.83 nM in the test on P. falciparum 3D7 (setting [4]) and less than 50 nM in the test on P. falciparum 3D7 (setting [5]).

Turning to `O[C@@H](CNCCCC(F)(F)F)c1cc(-c2ccc(C(F)(F)F)cc2)nc(C(F)(F)F)c1` [Compound 1p, (R)-2-((4,4,4-trifluorobutyl)amino)-1-(2-(trifluoromethyl)-6-(4-(trifluoromethyl)phenyl)pyridin-4-yl)ethan-1-ol], the IC50 in the test on P. falciparum 3D7 (setting [4]) is 43 nM; in the test on P. falciparum 3D7 (setting [5]), less than 50 nM.

On to `O[C@H](CNCCCCCCF)c1cc(-c2ccc(C(F)(F)F)cc2)nc(C(F)(F)F)c1` [Compound 1q, (S)-2-((6-fluorohexyl)amino)-1-(2-(trifluoromethyl)-6-(4-(trifluoromethyl)phenyl)pyridine-4-yl)ethan-1-ol], for which the figures for the 50% inhibitory concentration (IC50) in the test with P. falciparum 3D7 (setting [4]) and with P. falciparum 3D7 (setting [5]) were 31.4 nM and less than 50 nM, respectively. As to `O[C@H](CN[C@H](COCC1CC1)Cc1ccccc1)c1cc(-c2ccc(C(F)(F)F)cc2)nc(C(F)(F)F)c1` [Compound 1u, (S)-2-(((S)-1-(cyclopropylmethoxy)-3-phenylpropan-2-yl)amino)-1-(2-(trifluoromethyl)-6-(4-(trifluoromethyl)phenyl)pyridin-4-yl)ethan-1-ol], the IC50 in the test on P. falciparum 3D7 (setting [5]) is 9.31 ± 2.16 nM.

As for `CCCCNC[C@@H](O)c1ccc(-c2ccc(C(F)(F)F)cc2)nc1C(F)(F)F` [Compound 30a, (S)-2-(Butylamino)-1-(2-(trifluoromethyl)-6-(4-(trifluoromethyl)phenyl)pyridin-3-yl)ethanol], the half-maximal inhibitory concentration (IC50) is 132 ± 10.3 nM with Plasmodium falciparum W2 (setting [2]) and 479 ± 38.2 nM in test [1] (setting [3]).

Consider `CCCCNC[C@H](O)c1ccc(-c2ccc(C(F)(F)F)cc2)nc1C(F)(F)F` [Compound 30b], for which the IC50 in the test with Plasmodium falciparum W2 (setting [2]) is 523 nM; in test [1] (setting [3]), 1380 nM. `CCCCCNC[C@H](O)c1ccc(-c2ccc(C(F)(F)F)cc2)nc1C(F)(F)F` [Compound 30d, (R)-2-(Pentylamino)-1-(2-(trifluoromethyl)-6-(4-(trifluoromethyl)phenyl)pyridin-3-yl)ethanol]: the IC50 in the test with Plasmodium falciparum W2 (setting [2]) is 551 nM; in test [1] (setting [3]), 558 nM. Taken in the same sequence, the figures for `CCCCCCNC[C@@H](O)c1ccc(-c2ccc(C(F)(F)F)cc2)nc1C(F)(F)F` [Compound 30e, (S)-2-(Hexylamino)-1-(2-(trifluoromethyl)-6-(4-(trifluoromethyl)phenyl)pyridin-3-yl)ethanol] were 27.2 ± 9.3 nM and 170 ± 24 nM. Taken in the same sequence, the figures for `CCCCCCNC[C@H](O)c1ccc(-c2ccc(C(F)(F)F)cc2)nc1C(F)(F)F` [Compound 30f, (R)-2-(Hexylamino)-1-(2-(trifluoromethyl)-6-(4-(trifluoromethyl)phenyl)pyridin-3-yl)ethanol] were 523 nM and 575 nM. For `CCCCCCCNC[C@@H](O)c1ccc(-c2ccc(C(F)(F)F)cc2)nc1C(F)(F)F` [Compound 30g, (S)-2-(Heptylamino)-1-(2-(trifluoromethyl)-6-(4-(trifluoromethyl)phenyl)pyridin-3-yl)ethanol], the IC50 was 25.2 ± 1.2 nM in the test on Plasmodium falciparum W2 (setting [2]) and 97 ± 14 nM in test [1] (setting [3]). Turning to `CCCCCCCNC[C@H](O)c1ccc(-c2ccc(C(F)(F)F)cc2)nc1C(F)(F)F` [Compound 30h, (R)-2-(Heptylamino)-1-(2-(trifluoromethyl)-6-(4-(trifluoromethyl)phenyl)pyridin-3-yl) ethanol], the figures for the IC50 (in the test on Plasmodium falciparum W2 (setting [2]); in test [1] (setting [3])) were 31.7 nM and 519 nM, respectively.

As for `O[C@H](CNCCNC(c1ccccc1)c1ccccc1)c1ccc(-c2ccc(C(F)(F)F)cc2)nc1C(F)(F)F` [Compound 30i, (S)-2-((2-(Benzhydrylamino)ethyl)amino)-1-(2-(trifluoromethyl)-6-(4-(trifluoromethyl)phenyl)pyridin-3-yl)ethanol], the IC50 in the test with Plasmodium falciparum W2 (setting [2]) is 248 ± 36 nM; in test [1] (setting [3]), 32.9 nM. Consider `O[C@@H](CNCCNC(c1ccccc1)c1ccccc1)c1ccc(-c2ccc(C(F)(F)F)cc2)nc1C(F)(F)F` [Compound 30j, (R)-2-((2-(Benzhydrylamino)ethyl)amino)-1-(2-(trifluoromethyl)-6-(4-(trifluoromethyl)phenyl)pyridin-3-yl)ethanol], for which the IC50 is 171 nM with Plasmodium falciparum W2 (setting [2]) and 92.1 nM in test [1] (setting [3]). Taken in the same sequence, the figures for `COC[C@H](Cc1ccccc1)NC[C@@H](O)c1ccc(-c2ccc(C(F)(F)F)cc2)nc1C(F)(F)F` [Compound 30k, (S)-2-(((S)-1-methoxy-3-phenylpropan-2-yl)amino)-1-(2-(trifluoromethyl)-6-(4-(trifluoromethyl)phenyl)pyridin-3-yl)ethanol] were 351 ± 50.7 nM and 65.3 ± 8.4 nM. Taken in the same sequence, the figures for `COC[C@H](Cc1ccccc1)NC[C@H](O)c1ccc(-c2ccc(C(F)(F)F)cc2)nc1C(F)(F)F` [Compound 30l, (R)-2-(((S)-1-methoxy-3-phenylpropan-2-yl)amino)-1-(2-(trifluoromethyl)-6-(4-(trifluoromethyl)phenyl)pyridin-3-yl)ethanol] were 258 nM and 414 nM.

`O[C@H](CNCCCN1CCN(C(c2ccccc2)c2ccccc2)CC1)c1ccc(-c2ccc(C(F)(F)F)cc2)nc1C(F)(F)F` [Compound 30o]: the IC50 in the test with Plasmodium falciparum W2 (setting [2]) is 212 ± 38.6 nM; in test [1] (setting [3]), 111 ± 8.3 nM. Taken in the same sequence, the figures for `O[C@@H](CNCCCN1CCN(C(c2ccccc2)c2ccccc2)CC1)c1ccc(-c2ccc(C(F)(F)F)cc2)nc1C(F)(F)F` [Compound 30p, (R)-2-((3-(4-Benzhydrylpiperazin-1-yl)propyl)amino)-1-(2-(trifluoromethyl)-6-(4-(trifluoromethyl)phenyl)pyridin-3-yl)ethanol] were 89.6 nM and 84.9 nM.
